Our source for the mortality and pest or weed control values is patent publication US4962109A, “Insecticidally and acaricidally active pyrimidine esters and intermediates therefor” (Imperial Chemical Industries PLC, priority 1985, dated 1990).

Molecules are shown by their SMILES.

Holding throughout (type): in vivo
Experiment [1] deals with Tetranychus urticae (spider mites - adult). Nature of the experiment: Contact test on spider mites - adult (TUa), French bean leaf, mortality. As to conditions: 72 h, 500 ppm, contact, 3 days, read-out: TUa grading of mortality. The gist of the method:
(§1)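 Compound dissolved in acetone, diluted with water containing 0.01% by weight wetting agent to 500, 250 or 100 ppm. Pests held on host plant or foodstuff; pests and/or medium treated. Mortality scored one to three days later as grade A (80-100%), B (50-79%) or C (<50%) mortality or knockdown.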

Experiment [2] concerns Tetranychus urticae (spider mites - ova). Description: Contact test on spider mites - ova (TUe), French bean leaf, mortality. To be noted: 144 h, 500 ppm, contact, 6 days, read-out: TUe grading of mortality. The gist of the method:
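Graded read-out: A 80-100%, B 50-79%, C below 50% mortality or knockdown, assessed usually 1-3 days post-treatment. Liquid preparations at 500, 250 or 100 ppm by weight, from acetone solution diluted in water with 0.01% wetting agent, applied to pests and/or their host plant or food medium.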

Another experiment has as its system Myzus persicae (aphids). Description: Contact test on aphids (MP), Chinese Cabbage leaf, mortality. To be noted: 72 h, 500 ppm, contact, 3 days, read-out: MP grading of mortality. In outline:
as §1

The subject of experiment [3] is Nephotettix cincticeps (green leaf hopper - nymphs). Description: Contact test on green leaf hopper nymphs (NC), Rice plant, mortality. As to conditions: 48 h, 500 ppm, contact, 2 days, read-out: NC grading of mortality. The gist of the method:
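Product dissolved in acetone, diluted in water with 0.01% wetting agent to 500, 250 or 100 ppm; nymphs and/or host rice plants treated. Mortality or knockdown assessed 1–3 days later, graded A (80-100%), B (50-79%), C (<50%).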

Experiment [4] has as its system Musca domestica (houseflies - adults). Description: Knockdown test on houseflies - adults (MD/KD), Cotton wool/sugar. To be noted: 500 ppm, 4 hours, read-out: MD/KD grading of knockdown. In outline:
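Adult houseflies exposed to the compound at 500, 250 or 100 ppm in acetone/water with 0.01% wetting agent, on a cotton wool/sugar medium. Knockdown and mortality assessed, graded A (80-100%), B (50-79%) or C (<50%).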

The test system is the same in experiment [5]. Nature of the experiment: Contact test on houseflies - adults (MD), Cotton wool/sugar, mortality. To be noted: 72 h, 500 ppm, contact, 3 days, read-out: MD grading of mortality. The gist of the method: as §1
Experiment [6] relates to Blattella germanica (cockroach nymphs). Nature of the experiment: Contact test on cockroach nymphs (BG/C), Plastic pot, mortality. To be noted: 48 h, 500 ppm, contact, 2 days, read-out: BG/C grading of mortality. The gist of the method: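 Cockroach nymphs and/or their medium were treated with aqueous preparations at 500, 250 or 100 ppm (acetone solution diluted in water with 0.01% Lissapol NX wetting agent). Mortality or knockdown was assessed typically 1–3 days later and graded A (80–100%), B (50–79%) or C (<50%).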

Experiment [7] deals with Heliothis virescens (tobacco budworm - larvae). Nature of the experiment: Residual test on tobacco budworm larvae (HV), Cotton leaf, mortality. As to conditions: 48 h, read-out: HV grading of mortality. In outline: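 Product in acetone diluted with water containing 0.01% Lissapol NX, at 500, 250 or 100 ppm; pests and/or host medium (here cotton leaf) treated. Mortality scored one to three days later, graded A (80-100%), B (50-79%), C (<50%).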

The subject of experiment [8] is Spodoptera exigua (lesser army worm - larvae). Description: Residual test on lesser army worm larvae (SP), Cotton leaf, mortality. To be noted: 48 h, 500 ppm, residual, 2 days, read-out: SP grading of mortality. In outline: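 Product dissolved in acetone and diluted in water with 0.01% wetting agent to 500, 250 or 100 ppm; larvae and/or cotton leaf host treated. Mortality or knockdown scored one to three days later and graded A (80-100%), B (50-79%) or C (<50%).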

The test system of experiment [9] is Diabrotica balteata (rootworm larvae). Nature of the experiment: Residual test on rootworm larvae (DB), Filter paper/maize seed, mortality. As to conditions: 48 h, 500 ppm, residual, 2 days, read-out: DB grading of mortality. In outline: as §1

Regarding `CC(C)(C)c1ncc(C(C(=O)OCc2cccc(Oc3ccccc3)c2)C(C)(C)C)cn1` (racemic) [Compound 1, 3-phenoxybenzyl (RS)-2-[2-(1,1,-dimethylethyl)pyrimidin-5-yl]-3,3-dimethylbutanoate], the mortality at 500 ppm was 80 to 100% in [1]; 80 to 100% in experiment [2]; 80 to 100% in the experiment on Myzus persicae (aphids); 80 to 100% in experiment [3]; less than 50% in [5]; less than 50% in [6]. For the same compound, the mortality at 500 ppm in [7] is 80 to 100%; in [8], less than 50%; in experiment [9], less than 50%. Further, the pest or weed control at 500 ppm in experiment [4] lay in the range of 80 to 100%.

Consider `CCOCc1c(F)c(F)c(COC(=O)C(c2cnc(C(C)(C)C)nc2)C(C)(C)C)c(F)c1F` (racemic) [Compound 186, 2,3,5,6-tetrafluoro-4-(ethoxymethyl)benzyl (RS)-2-[2-(1,1-dimethylethyl)pyrimidin-5-yl]-3,3-dimethylbutanoate], for which the mortality at 500 ppm in experiment [1] was 80 to 100%; in experiment [2], less than 50%; in the experiment on Myzus persicae (aphids), 80 to 100%; in experiment [3], 80 to 100%; in experiment [5], less than 50%; in experiment [6] it was less than 50%. The mortality at 500 ppm was 80 to 100% in experiment [7], 80 to 100% in experiment [8] and less than 50% in experiment [9]. In addition, the pest or weed control at 500 ppm in [4] lay within 80 to 100%.

With `CCOC(=O)c1c(F)c(F)c(COC(=O)C(c2cnc(C(C)(C)C)nc2)C(C)(C)C)c(F)c1F` (racemic) [Compound 170], the mortality at 500 ppm in experiment [1] was 80 to 100%; in experiment [2], less than 50%; in the experiment on Myzus persicae (aphids), less than 50%; in [3], 50 to 79%; in experiment [5] it was less than 50%; in experiment [6], less than 50%. Moreover, the mortality at 500 ppm was less than 50% in [7], 80 to 100% in [8] and less than 50% in experiment [9]. For the same compound, the pest or weed control at 500 ppm in experiment [4] was in the range of 50 to 79%.

Turning to `CC(C)(C)c1ncc(C(C(=O)OCc2c(F)c(F)c(COCc3ccc(Cl)cc3)c(F)c2F)C(C)(C)C)cn1` (racemic) [Compound 163, 4-[(4-chlorobenzyloxy)methyl]-2,3,5,6-tetrafluorobenyl (RS)-2-[2-(1,1-dimethylethyl)pyrimidin-5-yl]-3,3-dimethylbutanoate], the mortality at 500 ppm in experiment [1] is 80 to 100%; in [2], less than 50%; with Myzus persicae (aphids), less than 50%; in [3], less than 50%; in experiment [5], less than 50%; in experiment [6] it was less than 50%. Besides, the figures for the mortality at 500 ppm in [7], in [8] and in [9] were less than 50%, 50 to 79% and less than 50%, respectively. Also, the pest or weed control at 500 ppm in experiment [4] was less than 50%.

As to `COCc1c(F)c(F)c(COC(=O)C(c2cnc(C(C)C)nc2)C(C)(C)C)c(F)c1F` (racemic) [Compound 131, 2,3,5,6-tetrafluoro-4-(methoxymethyl)benzyl (RS)-2-[2-(1-methylethyl)-pyrimidin-5-yl]-3,3dimethylbutanoate], the mortality at 500 ppm in [1] was 80 to 100%; in [2], 80 to 100%; in the experiment on Myzus persicae (aphids), 80 to 100%; in experiment [3], 80 to 100%; in experiment [5], less than 50%; in [6], less than 50%. The mortality at 500 ppm in experiment [7] was less than 50%; in experiment [8], 80 to 100%; in experiment [9] it was 80 to 100%. Besides, the pest or weed control at 500 ppm in [4] is 80 to 100%.

Consider `CC1(c2ncc(C(C(=O)OCc3ccc(F)c(Oc4ccccc4)c3)C(C)(C)C)cn2)CC1` (racemic) [Compound 204, 4-fluoro-3-phenoxybenzyl (RS)-2-[2-(1-methylcyclopropyl)pyrimidin-5-yl]-3,3-dimethylbutanoate], for which the mortality at 500 ppm was 80 to 100% in experiment [1]; less than 50% in experiment [2]; 80 to 100% in the experiment with Myzus persicae (aphids); 80 to 100% in [3]; 80 to 100% in [5]; 50 to 79% in experiment [6]. Moreover, the figures for the mortality at 500 ppm in [7], in experiment [8] and in experiment [9] were 80 to 100%, 80 to 100% and less than 50%, respectively. The pest or weed control at 500 ppm in [4] was in the range of 80 to 100%.

Take `COCc1c(F)c(F)c(COC(=O)C(c2cnc(C(C)(C)C)nc2)C(F)(F)F)c(F)c1F` (racemic) [Compound 213, 4-(methoxymethyl)-2,3,5,6-tetrafluorobenzyl (RS)-2-[2-(1,1-dimethylethyl)pyrimidin-5-yl]-3,3,3-trifluoropropionate]: the mortality at 500 ppm in experiment [1] is 80 to 100%; in experiment [2], less than 50%; with Myzus persicae (aphids), 50 to 79%; in experiment [3], less than 50%; in [5], less than 50%; in experiment [6], 50 to 79%. Besides, the mortality at 500 ppm in experiment [7], in experiment [8] and in [9] was less than 50% each time. The pest or weed control at 500 ppm in experiment [4] was 80 to 100%.

For the compound `CC(=O)OCc1c(F)c(F)c(COC(=O)C(c2cnc(C(C)(C)C)nc2)C(C)(C)C)c(F)c1F` (racemic) [Compound 166, 2,3,5,6-tetrafluoro-4-(acetyloxymethyl)benzyl (RS)-2-[2-(1,1-dimethylethyl)pyrimidin-5-yl]-3,3-dimethylbutanoate], the mortality at 500 ppm in experiment [1] was 80 to 100%; in experiment [2] it was 80 to 100%; with Myzus persicae (aphids) it was 80 to 100%; in experiment [3], 50 to 79%; in experiment [5] it was less than 50%; in [6], less than 50%. Moreover, the mortality at 500 ppm in [7] was less than 50%; in experiment [8], 80 to 100%; in experiment [9] it was 80 to 100%. The pest or weed control at 500 ppm in experiment [4] was less than 50%.

For the compound `CCC(C)(C)c1ncc([C@H](C(=O)O[C@H](C)c2cccc(Oc3ccccc3)n2)C(C)(C)C)cn1` (racemic) [Compound 57, (RS)-1-(6-phenoxypyrid-2-yl)ethyl (RS)-2-[2-(1,1-dimethylpropyl)pyrimidin-5-yl]-3,3dimethylbutanoate], the mortality at 500 ppm in [1] was 80 to 100%; in experiment [2] it was less than 50%; in the experiment on Myzus persicae (aphids), 80 to 100%; in experiment [3] it was 80 to 100%; in [5] it was 80 to 100%; in [6], less than 50%. The mortality at 500 ppm in experiment [7] was 80 to 100%; in experiment [8], 80 to 100%; in experiment [9], less than 50%. Moreover, in experiment [4], the pest or weed control at 500 ppm fell in the range of 80 to 100%.

Regarding `CC(C)(C)C(C(=O)OCc1ccc(F)c(Oc2ccccc2)c1)c1cnc(-c2ccccc2Cl)nc1` (racemic) [Compound 209, 4-fluoro-3-phenoxybenzyl (RS)-2-[2-(2-chlorophenyl)pyrimidin-5-yl]-3,3-dimethylbutanoate], the mortality at 500 ppm in [1] was 80 to 100%; in experiment [2], less than 50%; with Myzus persicae (aphids) it was 50 to 79%; in experiment [3], less than 50%; in experiment [5], less than 50%; in experiment [6] it was less than 50%. For the same compound, the mortality at 500 ppm was 80 to 100% in experiment [7], 50 to 79% in experiment [8] and less than 50% in experiment [9]. The pest or weed control at 500 ppm in experiment [4] is less than 50%.
